# Tested on: Trypanosoma brucei brucei
# Test: microbe, parasite or virus in culture
# Type: functional, organism-based, STIB 795
# Conditions: Trypanosoma brucei, STIB 795
# Description: DNDI: Inhibition of Human African Trypanosomiasis (HAT), STIB 795, in vitro
row,SMILES,IC50 [µM]
1,CCN(CC)CCn1c2ccccc2c2nc3ccccc3nc21,> 10.4
2,Oc1ccc(CN2CCC(Cc3ccccc3)CC2)c2cccnc12,> 10.4
3,O=C(CC(SCCO)c1ccc2c(c1)OCO2)c1cccs1 (stereo not given),> 10.4
4,Brc1ccc(C2Nc3cccc4cccc(c34)N2)o1,> 10.4
5,Cn1c(SC2=CS(=O)(=O)c3ccccc32)nc2ccccc21,> 10.4
6,COc1cc(C(=O)O/N=C(\N)c2ccncc2)cc(OC)c1OC,> 10.4
7,CCOC(=O)C(=Cc1ccc(Br)cc1)C(=O)OCC,> 10.4
8,C=CCc1c(C)nc(SC)nc1Nc1ccc(C(C)=O)cc1,> 10.4
9,CCOC(=O)c1c(N)sc2c(OCC)c(Br)ccc12,> 10.4
10,COc1cc(NS(=O)(=O)c2ccc(C)cc2)c2ncccc2c1,> 10.4
11,N=C(Cc1cccc2ccccc12)NOC(=O)c1cccs1,> 10.4
12,COC(=O)c1sc(=S)n(-c2cc(F)ccc2F)c1N,> 10.4
13,N=C(NOC(=O)c1ccoc1)c1ccc(Br)cc1,> 10.4
14,N=C(NOC(=O)c1cccc(Br)c1)c1ccncc1,> 10.4
15,N=C(NOC(=O)c1ccc(Cl)c(Cl)c1)c1ccccn1,> 10.4
16,CCOc1ccc2c(C)nc(NC3=NC(C)=CC(C)(C)N3)nc2c1,> 10.4
17,COc1nc(Nc2nc(O)c3ccccc3n2)nc2ccc(C)cc12,> 10.4
18,CC(C)N1C/C(=C/c2ccsc2)C(=O)/C(=C/c2ccsc2)C1,> 10.4
19,COc1cc2c(cc1Cl)/C(=C\CCN(C)C)c1ccccc1S2,> 10.4
20,CC(=O)c1cccc(Nc2cc(C)nc3c(C)cc(C)cc23)c1,> 10.4
21,CN(C)CCOC1c2ccccc2CCc2ccc3ccccc3c21 (stereo not given),> 10.4
22,Nc1nc(Nc2ccccc2)sc1C(=O)c1c[nH]c2ccccc12,> 10.4
23,CCOc1ccc(C(=O)N/N=C(\c2ccccc2)c2ccccn2)cc1,> 10.4
24,c1ccc(/C(=N\Nc2nc3ccccc3s2)c2ccccn2)cc1,> 10.4
25,COc1ccc(O)c(/C=N/NC(=O)c2cccc3ccccc23)c1,> 10.4

row,SMILES,IC50 [µM]
1,CCCN(CCC)CC(O)COc1ccc2ccccc2c1 (stereo not given),> 10.4
2,O=C1C(=O)/C(=C/c2ccccc2)CCC/C1=C/c1ccccc1,> 10.4
3,COC(=O)C1=C(C)NC(=O)/C1=C\c1cccc(OC)c1OC,> 10.4
4,NCC(OCc1ccc(-c2ccccc2)cc1)c1ccccc1 (stereo not given),> 10.4
5,Clc1ccc(Sc2ccc(/C=N/n3cnnc3)o2)cc1,> 10.4
6,Oc1ccccc1/C=N/Nc1nc2ccccc2n2nnnc12,> 10.4
7,Cc1cc(C)c2nc(C)cc(Nc3ccc(N(C)C)cc3)c2c1,> 10.4
8,O=C(Nc1ccnc(Cl)c1)NC12CC3CC(CC(C3)C1)C2,> 10.4
9,COc1ccc2c(C)c/c(=N/N=C\c3ccccc3O)[nH]c2c1,> 10.4
10,COc1nc(Nc2ccc(Cl)cc2)nc(NC(C)(C)C)n1,> 10.4
11,O=C1C(=O)c2c(C(=O)c3cccs3)coc2-c2ccccc21,> 10.4
12,CCOC(=O)Cc1csc(NC(=O)c2ccccc2F)n1,> 10.4
13,Cc1cc(C(=O)N/N=C/c2c(O)ccc3ccccc23)c(C)o1,> 10.4
14,Cc1ccn(CC(=O)N/N=C/c2c(O)ccc3ccccc23)n1,> 10.4
15,C(=N\n1cnnc1)/c1cccc(OCCOc2ccccc2)c1,> 10.4
16,CCOC(=O)c1sc(=S)n(-c2ccccc2CC)c1N,> 10.4
17,O=C(N/N=C/c1ccc(O)c2ncccc12)c1ccc(F)cc1,> 10.4
18,N#Cc1ccc(-c2csc(NNC(=O)c3ccco3)n2)cc1,> 10.4
19,c1ccc(-c2nnc(-c3ccccn3)nc2-c2ccccc2)cc1,> 10.4
20,C=CC1=Nc2ccccc2C(c2ccccc2)(c2ccccc2)N1,> 10.4
21,O=C(CN1C2=NCCN2c2ccccc21)c1ccc(Cl)cc1,> 10.4
22,COc1cc(/C=C/c2cc(C(F)(F)F)nc(=O)[nH]2)ccc1O,> 10.4
23,COC(=O)c1ccccc1N/N=N/c1nc2ccccc2s1,> 10.4
24,CCN(CC)c1ccc(/C=N\NC(=O)c2ccccn2)c(O)c1,> 10.4
25,O=C1C=C(N2CCCCC2c2cccnc2)C2(CCCCC2)O1 (stereo not given),> 10.4

row,SMILES,IC50 [µM]
1,COCCN1CSC(=S)N(Cc2ccc(OC)cc2)C1,> 10.4
2,CN(C)CCCC1(C)Oc2ccccc2Sc2ccccc21 (stereo not given),> 10.4
3,CSc1cccc(C(=O)Nc2cc(F)c(F)cc2Cl)c1,> 10.4
4,N#CC(c1ccc(Cl)cc1Cl)c1cnnc2ccccc12 (stereo not given),> 10.4
5,COc1ccc(-c2cc(-c3c(O)ccc4ccccc34)n[nH]2)cc1,> 10.4
6,C1CCC(Nc2nc3nonc3nc2NC2CCCCC2)CC1,> 10.4
7,Oc1ccc(/N=N/c2ccccc2C(F)(F)F)c2cccnc12,> 10.4
8,CC(C)(C)c1ccc(CCC2OCC(CN3CCCC3)O2)cc1 (stereo not given),> 10.4
9,COc1ccc(/C(N)=N/OC(=O)c2ccccc2F)cc1OC,> 10.4
10,CCOc1ccc(C(=O)CC(c2ccccc2)C(C#N)C#N)cc1 (stereo not given),> 10.4
11,Cc1ccc2cc3c(nc2c1)-c1ccccc1/C3=N/NC(N)=S,> 10.4
12,N#Cc1nc2c(c(N3CCNCC3)c1-c1ccccc1)CCCC2,> 10.4
13,COc1ccccc1-c1nnc(Cc2ccc(F)cc2Cl)o1,> 10.4
14,CN(C)CC/C=C(\c1ccccc1)c1cccc(C(F)(F)F)c1,> 10.4
15,O=C(NCC1CCCO1)c1cnc2sc3c(n2c1=O)CCC3 (stereo not given),> 10.4
16,Cc1ccsc1C=NN1CCN(c2ccc(Cl)cc2)CC1,> 10.4
17,Cc1ccc(N2CCN(c3ccc4nnc(C)n4n3)CC2)c(C)c1,> 10.4
18,Cc1ccc(O)c(/C=N/NC(=O)c2[nH]ncc2Br)c1,> 10.4
19,Nc1cc(NC(=O)c2ccncc2)cc(Oc2ccc(F)cc2)c1,> 10.4
20,NC(=S)N/N=C(/c1ccc(C(F)(F)F)cc1)c1ccccn1,> 10.4
21,COCc1nc2ccccc2n1CCCCOc1cccc(C)c1,> 10.4
22,O=C(/C(=C/c1cccnc1)c1nc2ccccc2[nH]1)c1ccccc1,> 10.4
23,COc1ccc2c(c1)SCc1ccccc1/C2=C\CCN(C)C,> 10.4
24,CCCCN(CCCC)CCNC(=O)Nc1ccc(Cl)cc1,> 10.4
25,Oc1ccc(Br)c2ccc(/C=C/c3ccccc3)nc12,> 10.4

row,SMILES,IC50 [µM]
1,C=CCc1cccc(/C=N/NC(=O)c2cc(C(C)(C)C)n[nH]2)c1O,> 10.4
2,Cc1c(-c2cc(Cl)cc3c2OC(C)(C)C3=O)ccc(N)c1C#N,> 10.4
3,CCCCCOc1ccc(NC(=N)Nc2nc(C)cc(C)n2)cc1,> 10.4
4,COc1ccc(-c2nc3c(=O)n(C)c(=O)nc-3n(C)n2)cc1OC,> 10.4
5,Cc1nn(C(=N)N)c(C)c1C1c2ccccc2CCc2ccccc21,> 10.4
6,Fc1cccc(Cl)c1COc1ccc(/C=N/n2cnnc2)cc1,> 10.4
7,Clc1ncnc2c1C(c1ccccc1)c1c(Cl)ncnc1O2,> 10.4
8,C/C(=N\Nc1nnc2c(n1)[nH]c1c(C)cccc12)c1ccccc1O,> 10.4
9,CCCNc1nc(NC2CCCCC2)nc(NC2CCCCC2)n1,> 10.4
10,Cc1ccc(Nc2nc3nonc3nc2NC(C)(C)C)cc1Cl,> 10.4
11,Cc1ccc(S(=O)(=O)Nc2ccc(Cl)c3cccnc23)cc1,> 10.4
12,Cc1cc(OCC(=O)NNc2ccccc2)c(C(C)C)cc1Cl,> 10.4
13,CC(Nc1cccc2ccccc12)C(=O)N/N=C/c1cccc(O)c1 (stereo not given),> 10.4
14,COC(=O)c1cccc(Nc2nc(N)c(C(=O)CC(C)C)s2)c1,> 10.4
15,Cc1cc(Br)cc(/C=N/NC(=O)c2ccncc2)c1O,> 10.4
16,CC(=O)Nc1cccc2c1C(=O)C(Cl)=C(N1CCOCC1)C2=O,> 10.4
17,CC1=C/C(=N\OC(=O)c2ccccc2Br)CC(C)(C)C1,> 10.4
18,Cc1cc(C(=O)N/N=C/c2ccc(-c3cccc(C(=O)O)c3)o2)[nH]n1,> 10.4
19,Cc1c(-c2cc(F)cc3c2CC(C)(C)O3)ccc2nc(N)nc(N)c12,> 10.4
20,CC1C(=O)Nc2ccc(S(=O)(=O)N3CCOCC3)cc2NC1=O (stereo not given),> 10.4
21,CCCc1ccc(C(OCCN(C)C)c2ccc(CCC)cc2)cc1,> 10.4
22,O=C1C(O)=C/C(=N/c2ccc(Cc3ccncc3)cc2)c2ccccc21,> 10.4
23,OCCSc1nc2ccccc2nc1N/N=C/c1ccccc1O,> 10.4
24,Cc1cccc(/C(=N\c2ccc(C)c(Cl)c2)NC2CCCCC2)c1,> 10.4
25,O=C(NCC1CCCO1)C(=O)N/N=C/c1c(O)ccc2ccccc12 (stereo not given),> 10.4

row,SMILES,IC50 [µM]
1,COCC(=O)N/N=C/c1ccc(Sc2cccc3cccnc23)o1,> 10.4
2,O=C(CCSc1ccccc1)Nc1nc(-c2ccccn2)cs1,> 10.4
3,CON(C)C(=O)Nc1ccc(Cl)c(CN2OCC(C)(C)C2=O)c1,> 10.4
4,CCn1c2ccccc2c2cc(/C=N/NC(=O)c3ccccn3)ccc21,> 10.4
5,CCS(=O)(=O)c1cccc(-c2ccc3nc(N)nc(N)c3c2C)c1,> 10.4
6,O=C(Cc1cccs1)Nc1ccc(C(=O)Nc2nccs2)cc1,> 10.4
7,Cc1nc(SCC(=O)NC2CCCCC2)n(-c2ccccc2)c1C,> 10.4
8,CCOC(=O)c1ccc(CCCCCOc2cnc(N)nc2N)cc1,> 10.4
9,Cc1ccc2[nH]c3c(c2c1)CCC(/C=N/NC(=O)c1ccccc1)C3=O (stereo not given),> 10.4
10,CC(C)(C)c1ccc(C(CN)c2ccc(Oc3ccccc3)cc2)cc1 (stereo not given),> 10.4
11,Cc1ccc(NC(=O)C/C(N)=N/OC(=O)c2ccccc2Cl)cc1,> 10.4
12,O=C(Nc1nccs1)c1ccc(=O)n(Cc2ccccc2Cl)c1,> 10.4
13,N#C/C(=C\Nc1cc(Cl)ccc1O)c1nc2cc(Cl)ccc2o1,> 10.4
14,CCOC(=O)c1ccc(NC(=O)C(=O)NN=C2CCN(C)CC2)cc1,> 10.4
15,CCN(CC)C1=C(n2nnc3ccccc32)C(=O)c2ccccc2C1=O,> 10.4
16,CCC(C)NC(=O)c1cccc(Nc2ccnc(-c3ccccc3)n2)c1 (stereo not given),> 10.4
17,CC(C)CCn1c(/C=N/Nc2nc3ccccc3[nH]2)nc2ccccc21,> 10.4
18,C=CCn1c(Oc2ccccc2Cl)nc2c1c(=O)n(C)c(=O)n2C,> 10.4
19,CCOC(=O)CNC(=O)c1ccc2c(Cl)c3c(nc2c1)CCCC3,> 10.4
20,NS(=O)(=O)c1ccc(N/C=C2\C(=O)Nc3ccccc32)cc1,> 10.4
21,CCCCC(CC)C(=O)Nc1ccc2ccc3cccnc3c2n1 (stereo not given),> 10.4
22,c1ccc(-c2cc(-c3ccccn3)nc(-c3ccccn3)c2)cc1,> 10.4
23,c1ccc(CCCNc2ccnc3cc4ccccc4cc23)cc1,> 10.4
24,CC(Cc1ccccc1)NCCC1c2ccccc2-c2ccccc21 (stereo not given),> 10.4
25,CN(C)CCCC1Sc2ccccc2Sc2ccccc21 (stereo not given),> 10.4
